Measured values reported in ChEMBL document CHEMBL5226310, “Synthesis and Characterization of Novel Mono- and Bis-Guanyl Hydrazones as Potent and Selective ASIC1 Inhibitors Able to Reduce Brain Ischemic Insult” (J Med Chem, 2021).
Activity calls are given as the source filed them. No cut-off for these calls is given here.

What was measured:
[1] = molecular target: T1, Acid-sensing ion channel 1 (Homo sapiens, UniProt P78348); assay: Inhibition of human ASIC1a in HEK293 cells assessed as inward proton-gated current at pH 6.0 incubated with compound followed by PcTx1 addition by patch-clamp electrophysiology; format: cell-based
T1 sequence (P78348 whole entry): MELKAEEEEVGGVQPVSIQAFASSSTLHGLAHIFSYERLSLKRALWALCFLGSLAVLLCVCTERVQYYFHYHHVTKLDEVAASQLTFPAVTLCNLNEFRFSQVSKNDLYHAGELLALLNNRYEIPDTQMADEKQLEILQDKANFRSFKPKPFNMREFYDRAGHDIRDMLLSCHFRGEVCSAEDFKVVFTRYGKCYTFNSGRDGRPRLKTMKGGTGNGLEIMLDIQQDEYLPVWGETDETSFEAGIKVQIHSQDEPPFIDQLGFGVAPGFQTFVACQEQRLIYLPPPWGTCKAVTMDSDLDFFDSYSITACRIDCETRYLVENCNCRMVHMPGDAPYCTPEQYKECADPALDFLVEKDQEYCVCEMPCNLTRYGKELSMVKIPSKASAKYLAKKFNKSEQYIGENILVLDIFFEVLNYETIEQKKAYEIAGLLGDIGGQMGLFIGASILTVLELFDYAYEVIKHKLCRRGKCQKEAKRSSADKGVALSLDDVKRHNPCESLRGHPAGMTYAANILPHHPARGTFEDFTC

Cortical neurone [2] = assay: Neuroprotective activity in OGD/Rx-induced E16 Wistar rat Primary cortical neurons assessed as increase in cell viability at 2.9 uM incubated for 3 hrs during OGD followed by reoxygenation with compound re-addition measured after 21 hrs by MTT assay; format: functional, cell-based; conditions: time 24.0 hrs
Mus musculus [3] = assay: Neuroprotective activity in mouse model of middle cerebral artery occlusion-induced transient brain ischemia assessed as decrease in ischemic volume at 0.6 mg/kg, ip administered thrice measured after 24 hrs (reference value: 58 +/- 2.6 %); format: functional; design: scale not given: the % may be the effect or the level left
Cortical neurone [4] = assay: Neuroprotective activity in OGD/Rx-induced E16 Wistar rat Primary cortical neurons assessed as increase in cell viability at 2.1 uM incubated for 3 hrs during OGD followed by compound removal and reoxygenation measured after 21 hrs by MTT assay; format: functional, cell-based
[5] = molecular target: T2, Acid-sensing ion channel 1 (Mus musculus) (UniProt Q6NXK8); assay: Inhibition of mouse ASIC1a expressed in genetically engineered-CHO-K1 cells at 10 uM preincubated for 10 mins at pH 7.4 followed by cell stimulation with proton injection at pH 6.5 by electro-chromic fluorescence voltage sensor-based assay relative to control
T2 sequence (whole entry): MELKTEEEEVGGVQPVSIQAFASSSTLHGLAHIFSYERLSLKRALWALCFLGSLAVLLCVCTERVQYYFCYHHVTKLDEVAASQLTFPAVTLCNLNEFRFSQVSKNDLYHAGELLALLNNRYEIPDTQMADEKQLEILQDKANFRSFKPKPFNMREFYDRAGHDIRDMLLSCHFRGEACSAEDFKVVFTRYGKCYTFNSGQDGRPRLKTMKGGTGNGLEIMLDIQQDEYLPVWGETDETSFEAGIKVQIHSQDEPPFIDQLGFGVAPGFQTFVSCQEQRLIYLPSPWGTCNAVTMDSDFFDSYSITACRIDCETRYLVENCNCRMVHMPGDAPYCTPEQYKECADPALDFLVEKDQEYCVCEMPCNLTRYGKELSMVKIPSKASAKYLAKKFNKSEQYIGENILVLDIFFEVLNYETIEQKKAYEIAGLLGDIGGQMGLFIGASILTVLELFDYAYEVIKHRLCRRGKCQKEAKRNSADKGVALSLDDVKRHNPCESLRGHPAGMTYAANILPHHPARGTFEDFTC

[6] = molecular target: T3, Acid-sensing ion channel 2 (Mus musculus) (UniProt Q925H0); assay: Inhibition of mouse ASIC2a expressed in genetically engineered-CHO-K1 cells at 10 uM preincubated for 10 mins at pH 7.4 followed by cell stimulation with proton injection at pH 6.5 by electro-chromic fluorescence voltage sensor-based assay relative to control
T3 sequence (whole entry): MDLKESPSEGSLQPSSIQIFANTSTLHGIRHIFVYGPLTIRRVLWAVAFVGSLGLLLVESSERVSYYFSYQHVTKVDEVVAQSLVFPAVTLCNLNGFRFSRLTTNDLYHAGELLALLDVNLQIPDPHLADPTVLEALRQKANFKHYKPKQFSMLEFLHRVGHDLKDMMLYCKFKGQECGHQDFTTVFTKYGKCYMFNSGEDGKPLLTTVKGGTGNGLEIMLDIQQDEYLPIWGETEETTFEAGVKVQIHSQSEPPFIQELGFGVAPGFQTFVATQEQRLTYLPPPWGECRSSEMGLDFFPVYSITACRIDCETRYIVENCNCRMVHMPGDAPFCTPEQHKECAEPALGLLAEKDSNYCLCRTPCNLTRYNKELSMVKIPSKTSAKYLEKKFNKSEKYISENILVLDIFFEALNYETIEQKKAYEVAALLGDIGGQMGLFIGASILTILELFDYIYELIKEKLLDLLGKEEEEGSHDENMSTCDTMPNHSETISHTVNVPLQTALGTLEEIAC

Cortical neurone [7] = assay: Neuroprotective activity in OGD/Rx-induced E16 Wistar rat Primary cortical neurons assessed as increase in cell viability incubated for 3 hrs during OGD followed by reoxygenation with compound re-addition measured after 21 hrs by MTT assay; format: functional, cell-based; conditions: time 24.0 hrs
Cortical neurone [8] = assay: Neuroprotective activity in OGD/Rx-induced E16 Wistar rat Primary cortical neurons assessed as increase in cell viability at 2.1 uM incubated for 3 hrs during OGD followed by reoxygenation with compound re-addition measured after 21 hrs by MTT assay; format: functional, cell-based; conditions: time 24.0 hrs
Mus musculus [9] = assay: Neuroprotective activity in mouse model of middle cerebral artery occlusion-induced transient brain ischemia assessed as reduction in focal neurological deficits at 0.65 mg/kg, ip administered thrice measured upto 72 hrs; format: functional, organism-based
[10] = molecular target: T4, Acid-sensing ion channel 1 (Homo sapiens) (UniProt P78348); assay: Inhibition of ASIC1a in acid stimulated-human Neural Progenitor Cells assessed as reduction in current amplitude at pH 6.5 at 10 uM measured for 5 mins with acid stimulation for every 2 mins by electrophysiology relative to control; format: cell-based; conditions: Neural Progenitor Cell
T4 sequence (whole entry): T1 sequence (P78348 whole entry)

Mus musculus [11] = assay: Neuroprotective activity in mouse model of middle cerebral artery occlusion-induced transient brain ischemia assessed as reduction in general neurological deficits at 0.65 mg/kg, ip administered thrice measured upto 72 hrs; format: functional, organism-based
Mus musculus [12] = assay: Neuroprotective activity in mouse model of middle cerebral artery occlusion-induced transient brain ischemia assessed as ischemic volume at 6.5 mg/kg, ip administered thrice measured after 24 hrs relative to control; format: functional
Cortical neurone [13] = assay: Neuroprotective activity in OGD/Rx-induced E16 Wistar rat Primary cortical neurons assessed as increase in cell viability at 0.4 uM incubated for 3 hrs during OGD followed by compound removal and reoxygenation measured after 21 hrs by MTT assay; format: functional, cell-based
Mus musculus [14] = assay: Neuroprotective activity in mouse model of middle cerebral artery occlusion-induced transient brain ischemia assessed as decrease in ischemic volume at 0.65 mg/kg, ip administered thrice measured after 24 hrs (reference value: 58 +/- 2.6 %); format: functional; design: scale not given: the % may be the effect or the level left
[15] = molecular target: T4, Acid-sensing ion channel 1 (Homo sapiens); assay: Inhibition of ASIC1a in acid stimulated-human Neural Progenitor Cells assessed as reduction in current amplitude at pH 6.5 at 10 uM measured for 5 mins with acid stimulation for every 2 mins by electrophysiology (reference value: 92.41 +/- 33.66 pA); format: cell-based; conditions: Neural Progenitor Cell
Mus musculus [16] = assay: Neuroprotective activity in mouse model of middle cerebral artery occlusion-induced transient brain ischemia assessed as ischemic volume at 0.65 mg/kg, ip administered thrice measured after 24 hrs relative to control; format: functional
Mus musculus [17] = assay: Neuroprotective activity in mouse model of middle cerebral artery occlusion-induced transient brain ischemia assessed as reduction in general neurological deficits at 0.65 mg/kg, ip administered thrice measured after 24 hrs; format: functional, organism-based
Cortical neurone [18] = assay: Neuroprotective activity in OGD/Rx-induced E16 Wistar rat Primary cortical neurons assessed as increase in cell viability at 0.4 uM incubated for 3 hrs during OGD followed by reoxygenation with compound re-addition measured after 21 hrs by MTT assay; format: functional, cell-based; conditions: time 24.0 hrs
Mus musculus [19] = assay: Neuroprotective activity in mouse model of middle cerebral artery occlusion-induced transient brain ischemia assessed as reduction in ischemic volume at 0.65 mg/kg, ip administered thrice measured upto 72 hrs relative to control; format: functional; design: scale not given: the % may be the effect or the level left
Mus musculus [20] = assay: Neuroprotective activity in mouse model of middle cerebral artery occlusion-induced transient brain ischemia assessed as reduction in focal neurological deficits at 0.65 mg/kg, ip administered thrice measured after 24 hrs; format: functional, organism-based
Cortical neurone [21] = assay: Neuroprotective activity in OGD/Rx-induced E16 Wistar rat Primary cortical neurons assessed as increase in cell viability at 9.5 uM incubated for 3 hrs during OGD followed by reoxygenation with compound re-addition measured after 21 hrs by MTT assay; format: functional, cell-based; conditions: time 24.0 hrs
Mus musculus [22] = assay: Neuroprotective activity in mouse model of middle cerebral artery occlusion-induced transient brain ischemia assessed as decrease in ischemic volume at 0.8 mg/kg, ip administered thrice measured after 24 hrs (reference value: 58 +/- 2.6 %); format: functional; design: scale not given: the % may be the effect or the level left
Cortical neurone [23] = assay: Neuroprotective activity in OGD/Rx-induced E16 Wistar rat Primary cortical neurons assessed as increase in cell viability at 0.13 uM incubated for 3 hrs during OGD followed by reoxygenation with compound re-addition measured after 21 hrs by MTT assay; format: functional, cell-based; conditions: time 24.0 hrs
Mus musculus [24] = assay: Neuroprotective activity in mouse model of middle cerebral artery occlusion-induced transient brain ischemia assessed as reduction in neurological deficits at 0.8 mg/kg, ip administered thrice measured after 24 hrs; format: functional, organism-based
Cortical neurone [25] = assay: Neuroprotective activity in OGD/Rx-induced E16 Wistar rat Primary cortical neurons assessed as increase in cell viability at 0.52 uM incubated for 3 hrs during OGD followed by reoxygenation with compound re-addition measured after 21 hrs by MTT assay; format: functional, cell-based; conditions: time 24.0 hrs

SMILES: CC(C)(C)c1ccc(-c2cccc(-c3ccc(/C=N/NC(=N)N)cc3)c2)cc1
- IC50 [1]: 2950 nM
- Activity (Cortical neurone [2]): Active

SMILES: N=C(N)N/N=C/c1ccc(-c2cc(-c3ccc(Br)cc3)n[nH]2)cc1
- IC50 [1]: 1990 nM
- Activity (Mus musculus [3]): 44%
- Activity (Cortical neurone [4]): Active
- inhibition [5]: 24.6%
- inhibition [6]: 86.2%
- Activity (Cortical neurone [7]): Dose-Dependent Effect
- Activity (Cortical neurone [8]): Active

SMILES: Cl.N=C(N)N/N=C\c1ccc(-c2cccc(-c3ccc(/C=N/NC(=N)N)cc3)c2)cc1
- Activity (Mus musculus [9]): Active
- inhibition [10]: 70%
- IC50 [1]: 407 nM
- Activity (Mus musculus [11]): Active
- Activity (Mus musculus [12]): 50.1%
- Activity (Cortical neurone [13]): Active
- inhibition [5]: 53%
- inhibition [6]: 35.4%
- Activity (Mus musculus [14]): 34.7%
- Activity [15]: 9.37 pA
- Activity (Cortical neurone [7]): Dose-Dependent Effect
- Activity (Mus musculus [16]): 47.1%
- Activity (Mus musculus [17]): Active
- Activity (Cortical neurone [18]): Active
- Activity (Mus musculus [19]): 35.3%
- Activity (Mus musculus [20]): Active

SMILES: N=C(N)N/N=C/c1ccc(-c2cc(-c3ccc(F)cc3)on2)cc1
- IC50 [1]: 9540 nM
- inhibition [5]: 24.2%
- inhibition [6]: 95.9%
- Activity (Cortical neurone [21]): Active

SMILES: Br.Br.C(=N/NC1=NCCN1)/c1ccc(-c2cc(-c3ccc(/C=N/NC4=NCCN4)cc3)[nH]n2)cc1
- IC50 [1]: 972 nM
- Activity (Mus musculus [22]): 40.9%
- Activity (Cortical neurone [23]): Active
- inhibition [5]: -3.26%
- inhibition [6]: 50.6%
- Activity (Mus musculus [24]): Active

SMILES: COc1ccc(Cn2nc(-c3ccc(/C=N/NC(=N)N)cc3)cc2-c2ccc(/C=N/NC(=N)N)cc2)cc1
- IC50 [1]: 518 nM
- Activity (Cortical neurone [25]): Active
- inhibition [5]: 72.9%
- inhibition [6]: 69.7%
